| melting point | SMILES |
| --- | --- |
| 92 to 95 °C | Cc1ccc(C(=O)/C(=C\c2ccccc2)C(=O)OC(C)(C)C)c(O)c1 |
| 109 to 112 °C | C[C@@H](NC(=O)c1ccc[nH]1)C(=O)N[C@H]1CC(=O)O[C@@H]1OCc1ccccc1 |
| 147 to 151 °C | CC(C)N1NC(c2ccc(F)cc2)=c2cc(Cl)ccc2=CS1(=O)=O |
| 159 to 160 °C | COc1cc(CCN2CCC[C@H](C(C#N)(c3ccccc3)c3ccccc3)C2)ccc1O |
| 48 to 52 °C | O=C(Nc1nccs1)C(CC1CCCC1)c1ccc(S(=O)(=O)C(F)(F)F)cc1 (stereo not given) |
| 151 to 155 °C | O=C(Nc1ccc(N2CCOCC2)cc1)c1ccccc1C(c1ccc(O)cc1)c1ccc(O)cc1 |
| 118 to 120 °C | CCOC(=O)c1cnc2n(CC)c3ccccc3n2c1=O |
| 102 to 104 °C | COC(=O)CCCNS(=O)(=O)c1cccc2c([N+](=O)[O-])cccc12 |
| 146 to 147 °C | O=C(O)C1CCCN2CC(CS)C(=O)N12 (stereo not given) |
| 104 °C | O=C(O)CCCCCOc1cc(-c2ccccc2)cc(-c2ccccc2)c1 |
| 158 to 164 °C | O=C(O)CCC(=O)N1CCN2C(=O)OC(c3ccccc3)(c3ccccc3)C2C1 (stereo not given) |
| 230 to 232 °C | O=C(O)CC(=O)Nc1ccc2c(=O)[nH]c(=O)n(CCCCN3CCC(OC(c4ccccc4)c4ccccc4)CC3)c2c1 |
| 236 °C | COc1ccccc1C1(O)C(O)CC(c2ccccc2)(c2ccccc2)C2CN(Cc3ccccc3)CC21 (stereo not given) |
| 124 to 126 °C | OC(Cc1ccccc1Cl)(Cn1ccnc1S)C1(Cl)CC1 (stereo not given) |
| 73 to 75 °C | CCCCCCCc1c(C(C)C)nc(C(C)C)c(CO)c1-c1ccc(F)cc1 |
| 163 to 165 °C | COc1cc(/C=C/C(=O)Nc2ccc(Br)cc2)ccc1F |
| 195 °C | CCNC(=O)c1ccc(-c2cnc3c(c2)N(Cc2ccccc2)C(=O)CN3)cc1 |
| 134 to 135 °C | Cc1oc(-c2ccccc2)nc1COc1cccc(CCCC2OC(=O)NC2=O)c1 (stereo not given) |
| 163 to 165 °C | Cc1cccc(C(O)C2C(c3ccccc3)CC(=O)N2C)c1 (stereo not given) |
| 90 to 92 °C | C=C(C)COc1ccc(Br)cc1CN(CC)c1ccc(-c2nnco2)nn1 |
| 173 to 176 °C | Cc1cc(C)n(-c2nc(Nc3ccc(Cl)cc3)cnc2CN)n1 |
| 107 to 109 °C | CCC(CC)(NCCCn1cnc(CCNC(=O)c2ccc(C#N)cc2)c1)c1ccccc1 |
| 90 to 91 °C | O=C(NCCCCC1CCSS1)N1CCCCC1 (stereo not given) |
| 145 to 150 °C | CSc1ccc(N)c(C(=O)O)c1 |
| > 300 °C | O=C1Nc2ccc(C(F)(F)F)cc2C1c1ncnc2c1cnn2C1CCCC1 (stereo not given) |

| melting point | SMILES |
| --- | --- |
| 109 to 110 °C | CCc1c(N)cccc1NC(=O)OC(C)(C)C |
| 168 to 169 °C | CS(=O)(=O)c1ccc(-c2c(C(=O)O)c3cccccc-3c2-c2ccccc2)cc1 |
| 168 °C | CON=C(c1ccc(OC(C)(C)C(=O)O)cc1)c1cccs1 |
| 108 to 110 °C | CCOC(=O)C1C(=O)N(c2ccccc2)c2cc3ccoc3cc21 (stereo not given) |
| 95 to 98 °C | CC(C)(C)OC(=O)N[C@H]1CC[C@H](CCN2CCCN(c3cccc(Cl)c3Cl)CC2)CC1 |
| 115 to 117 °C | COC(=O)c1nc(Br)ccc1O |
| 223 to 224 °C | O=c1[nH]c2cc(F)c(NCC3COc4ccccc4C3)cc2o1 (stereo not given) |
| 221 °C | COc1ccccc1-c1cc2c(Nc3cccc(Cl)c3)ncnc2[nH]1 |
| 157 to 158 °C | O=C1NCCSc2sccc21 |
| 130 to 132 °C | CN1C(=O)N(CC(=O)O)C(=O)C1(C)C |
| 150 to 152 °C | Cn1nc(-c2ccncc2)n(C)c1=S |
| 223 to 228 °C | O=C1C(=O)c2ccc(-c3ccncc3)cc2C2=C1SCC1(CCNCC1)O2 |
| 134 to 136 °C | CCCn1nnn(-c2cc(OCC(=O)O)c(Cl)cc2Cl)c1=O |
| 72 to 74 °C | CC(C)(C)C1(C(F)n2cncn2)CO1 (stereo not given) |
| 123 to 125 °C | Cc1ccc(CON2C(C(F)(F)F)C(C(=O)Nc3ccccc3)=CN2C)c(C)c1 (stereo not given) |
| 53 to 55 °C | CCOC(=O)CCCOc1ccc(C(C)=O)cc1OC |
| 177 to 179 °C | CSC1=NC(=O)C(=Cc2cc(C(C)(C)C)c(O)c(C(C)(C)C)c2)N1C |
| 170 °C | O=C1c2cc3nnn(CCC4CCCCC4)c(=O)c3cc2OC2CCCN12 (stereo not given) |
| 46 °C | CCCCCCCCCCCCCCC(=S)NCCCN1CCOCC1 |
| > 300 °C | O=c1c2cc(-c3nnn[nH]3)ccc2oc2ncccc12 |
| 270 to 272 °C | CCOC(=O)c1cnn2c1c(=S)[nH]c1ccccc12 |
| 102 to 105 °C | N#CC=C1CCN(c2ccc(N3C[C@H](CNC(=S)CO)OC3=O)cc2F)CC1 |
| > 270 °C | CSc1ncc(C(=O)NC2CC2)c(Nc2ccc3cn[nH]c3c2)n1 |
| 220 to 221 °C | CCOC(=O)c1cn(C2CC2)c2c(C)c(F)c(F)cc2c1=O |
| 194 to 195 °C | O=C(Nc1ccc(C(F)(F)F)cc1)N1N=C2c3ccc(C(F)(F)F)cc3OC3CCCC1C23 (stereo not given) |

| melting point | SMILES |
| --- | --- |
| 87 to 88 °C | Cc1cc(C)c2c(c1C)OCC2c1ccc(C=O)cc1 (stereo not given) |
| 75 to 77 °C | O=C1O[C@H](C(Cl)(Cl)Cl)N2CCC[C@@]12Cc1ccccc1 |
| 73.5 to 74.5 °C | COC(=O)c1ccc(F)c2c1C=CCO2 |
| 124 to 125 °C | CCOC(=O)c1cc2cccc(N(C)S(=O)(=O)c3ccccc3OC)c2n1COC |
| 160 to 162 °C | O=C(CC(NC(=O)C(F)(F)F)C(=O)O)c1ccc2c(c1)CCO2 (stereo not given) |
| 87 to 90 °C | Cc1cc(Cl)c2c(n1)C(O)CCC2 (stereo not given) |
| 133 to 135 °C | COC(=O)c1c(Cl)cc(Cl)cc1NC(=O)CSc1ccc(NC(=O)c2ccco2)cc1 |
| 125 to 127 °C | O=c1oc(-c2cccc(Cl)c2)cc(O)c1SCCc1ccccc1 |
| 164 to 165 °C | COC(=O)c1cc(-c2ccccn2)n(-c2ccc(Cl)nn2)n1 |
| 221 to 223 °C | CN1C(=O)CC[C@]2(C)c3ccc(-c4ccc5ccccc5c4)cc3CC[C@@H]12 |
| 186 °C | CC(C)(C)NCC(O)COc1ccc(-c2nc(C(F)(F)F)c[nH]2)cc1 (stereo not given) |
| 99 °C | NCC1COc2cc(F)cc(-c3ccccc3C(F)(F)F)c2N1 (stereo not given) |
| 202 to 203 °C | CN(C)c1cnn(C)c(=O)c1-c1ccccc1C=NO |
| 162 to 164 °C | O=C(O)CCC(=O)c1cccc([N+](=O)[O-])c1 |
| 136 to 137 °C | Cc1cnc(-c2ccc(Br)cc2)nc1-c1ccc(Br)cc1 |
| 91 to 95 °C | CC(C)c1ccc2ncn(/C=C/C(=O)NCCNCc3ccccn3)c(=O)c2c1 |
| 247 to 250 °C | COc1cc(-c2ccc3c(c2)CC[C@H]2N(C)C(=O)CC[C@]32C)ccc1O |
| 168 °C | Cc1ccc2c(c1)CC(=O)N2 |
| 252 °C | Cn1cc(-c2cc(-c3cnc4[nH]ccc4c3)ccn2)n(-c2ccc(CC#N)cc2)c1=O |
| 140 to 141 °C | CCn1ncc2c1ncc1c(=O)n(CCN3CCOCC3)c3cc(C)nn3c12 |
| 183 to 186 °C | Nc1nc2ccccc2c2c1nc(CO)n2CCCCNC(=O)C1CCCC1 |
| 139 to 140 °C | Cc1noc(C)c1NCC#CI |
| 140 °C | COc1cc(N)c(Cl)cc1C(=O)OCC1CCN(CCCOc2ccc(F)cc2)CC1 |
| 167 to 171 °C | Cc1nccn1-c1ccc(-c2cnc([C@H](Cc3ccccn3)N(C=O)c3cc4ccccc4o3)n2C)cc1 |
| 169 to 170 °C | CCOC(=O)Cc1ccc(NC(=O)C(COc2cccc(Cl)c2)NS(=O)(=O)c2ccc(I)cc2)cc1 (racemic) |

| melting point | SMILES |
| --- | --- |
| 127 to 129 °C | CCc1nc2c(cnn2CC)c(NC2CCOCC2)c1CNC(=O)c1cccc(C(=O)NCc2ccc(OC)c(-c3cccc(CN4CC(C)NC(C)C4)c3)c2)c1 (stereo not given) |
| 99 to 100 °C | COCC(=O)Nc1nc2ccccc2s1 |
| 129 to 131 °C | COC(=O)Cc1coc2cc(C(=O)NC(C(=O)NCc3ccccc3)c3ccccc3)ccc12 (stereo not given) |
| 290 to 295 °C | COc1cc2ncc(C#N)c(Nc3ccc4[nH]ncc4c3)c2cc1OC |
| 96 to 98 °C | CC(C)Oc1cc(-n2nc(C(F)(F)F)n(C)c2=O)c(Cl)cc1Cl |
| 208 to 210 °C | O=C1CCCN1c1cccc(-n2cnc3cc(-c4ccoc4)cnc32)c1 |
| 51 to 53 °C | COc1ccc2cc(CCC3(C)OCCO3)cc(F)c2c1 |
| 228 °C | CCOc1ccc2c(c1)n(C1CCCCC1)c(=O)n2S(=O)(=O)c1ccc(N)cc1OC |
| 264 to 267 °C | CCn1c2ccccc2c2cc(/C=C/C(=O)CC(=O)/C=C/c3ccc4c(c3)c3ccccc3n4CC)ccc21 |
| 190 to 192 °C | O=c1cc(-c2ccncc2)nc2n1CCC(c1ccncc1)N2CC(O)c1cccc(Br)c1 (stereo not given) |
| 297 to 307 °C | O=C(Nc1ccc(C(F)(F)F)cc1)Nc1ccc2c(c1)COC2=O |
| 104 to 105 °C | CCOC(=O)C1CCn2c(cc3cc(OC)ccc32)C1 (stereo not given) |
| 40 to 42 °C | CN1CCC[C@H](OCc2cc(C(F)(F)F)cc(C(F)(F)F)c2)[C@@H]1c1ccccc1 |
| 201 to 203 °C | Cn1c(=O)sc2cc(N3C[C@H](C(=O)NCCF)OC3=O)ccc21 |
| 91.9 °C | Nc1cc(C(=O)c2ccccc2)ccc1Cl |
| 152 to 155 °C | Cc1ccc(N2CCN(c3c(C)c(C)c4c(c3C)CC(C)(C)O4)CC2)cc1 |
| 145 to 148 °C | CC(C)=CCN(C(=O)OC(C)(C)C)c1ccc(OC2CCN(C(=O)OC(C)(C)C)CC2)cc1 |
| 158 to 160 °C | CC(C)(C)OC(=O)N1CCC(Oc2ccc3c(c2)NC(=O)CC3)CC1 |
| 124 to 126 °C | CCCCc1nn(-c2cc([N+](=O)[O-])ccc2Cl)c(=O)n1Cc1ccc(-c2ccccc2S(=O)(=O)NC(C)(C)C)cc1F |
| 85 to 90 °C | Cc1ccccc1C1(c2ccc(OC(F)F)cc2)N=C(N)N(C)C1=O (stereo not given) |
| 212 to 215 °C | CCc1noc(C)c1-c1[nH]c2ccccc2c1C(=O)C(=O)N(C)C |
| 212 to 214 °C | Cc1oc(-c2ccc(C(F)(F)F)cc2)nc1-c1ccc2c(Br)c(OCC(=O)O)ccc2c1 |
| 213 to 215 °C | N#Cc1cccc(/C=C/C2=CCN(Cc3c[nH]c4ncccc34)CC2)c1 |

| SMILES | melting point |
| --- | --- |
| CC(C)C(=O)NC1CCc2c(c3cc(-c4ccccn4)ccc3n2Cc2cccc(F)c2)C1 (stereo not given) | 228 to 230 °C |
| c1ccc2c(c1)cc1n2CC2(CCNC2)C1 (stereo not given) | 90 to 92 °C |
